Drawing on patent publication US8222247B2, “Modulators of glucocorticoid receptor, AP-1, and/or NF-kappabeta activity and use thereof” (Bristol-Myers Squibb Company, priority 2006, dated 2012), this text covers percent relative binding activity vs dexamethasone and Ki for 25 molecules.

In the first assay the target is T1, human full-length glucocorticoid receptor (Homo sapiens, UniProt P04150).
T1 construct: recombinantly expressed human full-length glucocorticoid receptor; purchased PanVera Co., Madison, Wis; P2816
T1 sequence (P04150 1-777): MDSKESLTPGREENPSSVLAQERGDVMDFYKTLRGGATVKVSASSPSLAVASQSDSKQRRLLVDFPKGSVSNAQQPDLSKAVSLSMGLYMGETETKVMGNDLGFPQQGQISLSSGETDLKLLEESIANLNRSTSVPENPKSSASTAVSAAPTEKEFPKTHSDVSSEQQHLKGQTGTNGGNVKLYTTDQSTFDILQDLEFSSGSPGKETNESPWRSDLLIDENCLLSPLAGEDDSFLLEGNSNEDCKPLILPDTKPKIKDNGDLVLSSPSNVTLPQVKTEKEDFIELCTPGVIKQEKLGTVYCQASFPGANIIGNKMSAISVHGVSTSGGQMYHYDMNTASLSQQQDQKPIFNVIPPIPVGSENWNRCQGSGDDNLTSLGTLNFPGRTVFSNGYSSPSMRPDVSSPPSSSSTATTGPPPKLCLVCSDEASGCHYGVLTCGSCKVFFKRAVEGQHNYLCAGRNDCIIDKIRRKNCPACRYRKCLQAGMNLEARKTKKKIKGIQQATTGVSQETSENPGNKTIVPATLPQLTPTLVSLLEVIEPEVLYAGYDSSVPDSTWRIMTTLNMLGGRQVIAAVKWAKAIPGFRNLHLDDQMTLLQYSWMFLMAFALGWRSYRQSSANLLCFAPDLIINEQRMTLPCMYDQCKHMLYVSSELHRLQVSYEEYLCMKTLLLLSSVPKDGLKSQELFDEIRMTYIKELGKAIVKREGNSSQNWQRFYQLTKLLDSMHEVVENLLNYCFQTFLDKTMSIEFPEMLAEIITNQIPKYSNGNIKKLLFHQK
The assay is described as follows: Glucocorticoid Receptor Binding Assay (II), fluorescence polarization competitor kit. To be noted: 1 h, % Relative Binding Affinity to dexamethasone, read-out: GR (% RBA* @ 10 μM) (GR Binding Assay (II)b). The protocol: Glucocorticoid Receptor Binding Assay (II)^b
In order to measure the binding of compounds on the glucocorticoid receptor a commercially available kit was used (Glucocorticoid receptor competitor assay kit, PanVera Co., Madison, Wis., P2816). Briefly, a cell lysate containing recombinantly expressed human full-length glucocorticoid receptor was mixed with a fluorescently labeled glucocorticoid (1 nM Fluormone GS1) in the presence or absence of test compound. After one hour at room temperature, the fluorescence polarization (FP) of the samples were measured. The FP of a mixture of receptor, fluorescent probe (i.e. Fluormone GS1) and 1 mM dexamethasone represented background fluorescence or 100% inhibition, whereas, the FP of the mixture without dexamethasone was taken to be 100% binding. The percentage inhibition of test molecules were then compared to the sample with 1 mM dexamethasone and expressed as % relative binding activity with dexamethasone being 100% and no inhibition is 0%. Test molecules were analyzed in the concentration range from 2.4 nM to 40 microMolar.
Background: Fluorescence polarisation rises when a labelled molecule tumbles more slowly, as on binding a larger partner.
Consider `CC(C)(C(=O)Nc1nccs1)C(c1ccccc1)c1ccc(N2CCOCC2)nc1` (single isomer, unassigned) [Example 20, 2,2-Dimethyl-3-(6-(4-morpholinyl)-3-pyridinyl)-3-phenyl-N-1,3-thiazol-2-ylpropanamide], for which the percent relative binding activity vs dexamethasone at 10 µM worked out at 152%. Same read-out and setting: the result for `CC(C)(C(=O)Nc1nncs1)C(c1ccccc1)c1ccc(N2CCOCC2)nc1` (single isomer, unassigned) [Example 22, 2,2-Dimethyl-3-(6-(4-morpholinyl)-3-pyridinyl)-3-phenyl-N-1,3,4-thiadiazol-2-ylpropanamide] reads 477%.

Consider `CC(C)(C(=O)Nc1nncs1)C(c1cccc(F)c1)c1ccc(Br)s1` (stereo not shown) [Example 1, 3-(5-Bromo-2-thienyl)-3-(3-fluorophenyl)-2,2-dimethyl-N-1,3,4-thiadiazol-2-ylpropanamide], for which the percent relative binding activity vs dexamethasone at 10 µM turned out to be 6.4%. The same measure, in the same setting: the result for `CC(C)(C(=O)Nc1nccs1)C(c1cccc(F)c1)c1ccc(Br)s1` (stereo not shown) [Example 2, 3-(5-bromo-2-thienyl)-3-(3-fluorophenyl)-2,2-dimethyl-N-1,3-thiazol-2-ylpropanamide] reads 10.1%; that for `CC(C)(C(=O)Nc1nncs1)C(c1ccccc1)c1ccncc1` (stereo not shown) [Example 6, 2,2-dimethyl-3-phenyl-3-(4-pyridinyl)-N-1,3,4-thiadiazol-2-ylpropanamide], 502%.

Take `CC(C)(C(=O)Nc1nccs1)C(c1ccccc1)c1ccncc1` (stereo not shown) [Example 7, 2,2-dimethyl-3-phenyl-3-(4-pyridinyl)-N-1,3-thiazol-2-ylpropanamide]: the percent relative binding activity vs dexamethasone at 10 µM came to 161%.

As for `CC(C)(C(=O)Nc1nncs1)C(c1ccc(N2CCOCC2)cc1)c1cccs1` (stereo not shown) [Example 11, 2,2-dimethyl-3-(4-(4-morpholinyl)phenyl)-N-1,3,4-thiadiazol-2-yl-3-(2-thienyl)propanamide], the percent relative binding activity vs dexamethasone at 10 µM was determined as 7.4%. As to `CC(C)(C(=O)Nc1nccs1)C(c1ccc(N2CCOCC2)cc1)c1cccs1` (stereo not shown) [Example 12, 2,2-dimethyl-3-(4-(4-morpholinyl)phenyl)-N-1,3-thiazol-2-yl-3-(2-thienyl)propanamide], the percent relative binding activity vs dexamethasone at 10 µM was found to be 6.1%. Take `CC(C)(C(=O)Nc1nncs1)C(c1ccccc1)c1ccc(N2CCCCC2)nc1` (stereo not shown) [Example 15, 2,2-dimethyl-3-phenyl-3-(6-(1-piperidinyl)-3-pyridinyl)-N-1,3,4-thiadiazol-2-ylpropanamide]: the percent relative binding activity vs dexamethasone at 10 µM amounted to 14.7%. Consider `CC(C)(C(=O)Nc1nncs1)C(c1ccccc1)c1ccc(N2CCCC2)nc1` (stereo not shown) [Example 16, 2,2-dimethyl-3-phenyl-3-(6-(1-pyrrolidinyl)-3-pyridinyl)-N-1,3,4-thiadiazol-2-ylpropanamide], for which the percent relative binding activity vs dexamethasone at 10 µM was 90.4%. On the same count and under the same terms, the result for `CC(C)(C(=O)Nc1nncs1)C(c1ccccc1)c1ccc(N2CCC(O)CC2)nc1` (stereo not shown) [Example 17, 3-(6-(4-hydroxy-1-piperidinyl)-3-pyridinyl)-2,2-dimethyl-3-phenyl-N-1,3,4-thiadiazol-2-ylpropanamide] reads 112%; that for `Cc1ccc(CNc2ccc(C(c3ccccc3)C(C)(C)C(=O)Nc3nccs3)cn2)cc1` (stereo not shown) [Example 18, 2,2-dimethyl-3-(6-((4-methylbenzyl)amino)-3-pyridinyl)-3-phenyl-N-1,3-thiazol-2-ylpropanamide], 37.2%; that for `COc1ccc(-c2ccc(C(c3ccccc3)C(C)(C)C(=O)Nc3nncs3)cn2)cc1` (stereo not shown) [Example 24, 3-(6-(4-Methoxyphenyl)-3-pyridinyl)-2,2-dimethyl-3-phenyl-N-1,3,4-thiadiazol-2-ylpropanamide], 16.3%. Still for that read-out and setting: the result for `CC(C)(C(=O)Nc1nccs1)C(c1ccccc1)c1ccc(-c2ccoc2)nc1` (stereo not shown) [Example 25, 3-(6-(3-furyl)-3-pyridinyl)-2,2-dimethyl-3-phenyl-N-1,3-thiazol-2-ylpropanamide] reads 73.4%.

The target of the next assay is T2, human glucocorticoid receptor (Homo sapiens, UniProt P04150).
T2 construct: purified human recombinant full-length glucocorticoid receptor (2 nM); purchased Invitrogen Part #2893
T2 sequence (P04150 1-777): T1 sequence (P04150 1-777)
As to the kind of experiment: Glucocorticoid Receptor Binding Assay (I), fluorescence polarization competitor kit. Particulars: purified human recombinant full-length GR, Fluormone GS Red. Summed up: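 Fluorescence polarization competition of purified recombinant full-length human GR (2 nM) with 1 nM Fluormone GS Red, incubated 2 h at room temperature in the dark. Normalized to vehicle (0%) and 5 μM dexamethasone (100%) as % relative binding activity. Compounds tested 8.5E-05 to 5 μM.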
On to `C[C@H](C(=O)Nc1nncs1)[C@@H](c1cccc(F)c1)c1ccc(-c2ccc(C(=O)N(C)C)cc2)s1` [Example 125, 4-(5-((1S,2S)-1-(3-fluorophenyl)-2-methyl-3-oxo-3-(1,3,4-thiadiazol-2-ylamino)propyl)-2-thienyl)-N,N-dimethylbenzamide], for which the inhibition constant Ki (as a rule, a dissociation constant, usually derived from enzyme kinetics or from competition with a known ligand) stood at 5.71 nM. On the same count and under the same terms, then `C[C@H](C(=O)Nc1nncs1)[C@H](c1cccc(F)c1)c1ccc(-c2ccc(C(=O)N(C)C)c(Cl)c2)s1` [Example 126, 2-chloro-4-(5-((1R,2S)-1-(3-fluorophenyl)-2-methyl-3-oxo-3-(1,3,4-thiadiazol-2-ylamino)propyl)-2-thienyl)-N,N-dimethylbenzamide], with 220 nM. `C[C@H](C(=O)Nc1nncs1)[C@H](c1cccc(F)c1)c1ccc(-c2ccc(C(=O)N3CCOCC3)c(Cl)c2)s1` [Example 127, (2S,3R)-3-(5-(3-chloro-4-(4-morpholinylcarbonyl)phenyl)-2-thienyl)-3-(3-fluorophenyl)-2-methyl-N-1,3,4-thiadiazol-2-ylpropanamide]: the Ki is 148 nM. Same read-out and setting: the result for `C[C@H](C(=O)Nc1nncs1)[C@H](c1cccc(F)c1)c1ccc(-c2ccc(C(=O)N(C)C)cc2)s1` [Example 128, 4-(5-((1R,2S)-1-(3-fluorophenyl)-2-methyl-3-oxo-3-(1,3,4-thiadiazol-2-ylamino)propyl)-2-thienyl)-N,N-dimethylbenzamide] reads 277 nM; that for `C[C@@H](C(=O)Nc1nncs1)[C@@H](c1cccc(F)c1)c1ccc(-c2ccc(C(=O)N(C)C)c(Cl)c2)s1` [Example 129, 2-chloro-4-(5-((1S,2R)-1-(3-fluorophenyl)-2-methyl-3-oxo-3-(1,3,4-thiadiazol-2-ylamino)propyl)-2-thienyl)-N,N-dimethylbenzamide], 158 nM; that for `C[C@@H](C(=O)Nc1nncs1)[C@@H](c1cccc(F)c1)c1ccc(-c2ccc(C(=O)N3CCOCC3)c(Cl)c2)s1` [Example 130, (2R,3S)-3-(5-(3-chloro-4-(4-morpholinylcarbonyl)phenyl)-2-thienyl)-3-(3-fluorophenyl)-2-methyl-N-1,3,4-thiadiazol-2-ylpropanamide], 160 nM.

Take `C[C@@H](C(=O)Nc1nncs1)[C@@H](c1cccc(F)c1)c1ccc(-c2ccc(C(=O)N(C)C)cc2)s1` [Example 131, 4-(5-((1S,2R)-1-(3-fluorophenyl)-2-methyl-3-oxo-3-(1,3,4-thiadiazol-2-ylamino)propyl)-2-thienyl)-N,N-dimethylbenzamide]: the Ki was 236 nM. Still for that read-out and setting: then `C[C@H](C(=O)Nc1nncs1)[C@@H](c1ccccc1)c1ccc(Br)s1` [Example 133, (2S,3S)-3-(5-bromo-2-thienyl)-2-methyl-3-phenyl-N-1,3,4-thiadiazol-2-ylpropanamide], with 4.85 nM; and `C[C@@H](C(=O)Nc1nncs1)[C@H](c1ccccc1)c1ccc(Br)s1` [Example 136, (2R,3R)-3-(5-bromo-2-thienyl)-2-methyl-3-phenyl-N-1,3,4-thiadiazol-2-ylpropanamide], with 1.98 nM. On to `C[C@H](C(=O)Nc1nncs1)[C@@H](c1ccccc1)c1ccc(-c2ccc(C(=O)N(C)C)cc2)s1` [Example 137, N,N-dimethyl-4-(5-((1S,2S)-2-methyl-3-oxo-1-phenyl-3-(1,3,4-thiadiazol-2-ylamino)propyl)-2-thienyl)benzamide], for which the inhibitory constant (Ki) was found to be 4.73 nM. Take `CCN(C)C(=O)c1ccc(-c2ccc([C@@H](c3cccc(F)c3)[C@@H](C)C(=O)Nc3ncc(C)s3)s2)cc1` [Example 142, N-ethyl-4-(5-((1R,2R)-1-(3-fluorophenyl)-2-methyl-3-((5-methyl-1,3-thiazol-2-yl)amino)-3-oxopropyl)-2-thienyl)-N-methylbenzamide]: the Ki was 3.2 nM.
